Assay results from US7807678B2, “Peptidomimetics of biologically active metallopeptides” (Palatin Technologies, Inc., priority 2001, dated 2010).
Non-standard residues stand in square brackets, D forms with d. Residues, ends and D or L forms follow the SMILES beside them. *: point of attachment. Hyp = O=C(O)[C@@H]1C[C@@H](O)CN1; NH(CH2)3NH2 = NCCCN*; Bn = c1ccc(C*)cc1

Assays:
MC3-R = MC3-R (Homo sapiens, UniProt P41968); experiment: Competitive inhibition binding assay, 125I-NDP-α-MSH, MC3-R; design: expressed in transfected cells; settings: for Inhibition at 1 μM MC3-R: 1 μM compound, inhibition of 125I-NDP-α-MSH binding, mean of triplicates, results less than 0% reported as 0%
Protocol: (§1) The competitive inhibition binding assay was conducted using membranes prepared from hMC3-R, hMC4-R, hMC5-R, and B-16 mouse melanoma cells (containing MC1-R) using 0.4 nM ^125I-NDP-α-MSH (New England Nuclear, Boston, Mass., USA) in 50 mM HEPES buffer containing 1 mM MgCl2, 2 mM CaCl2, and 5 mM KCl, at pH 7.2. The assay tube also contained a chosen concentration of the test peptidomimetic of this invention, generally 1 μM, for determining its efficacy in inhibiting the binding of ^125I-NDP-α-MSH to its receptor.
(§2) Incubation was for 90 minutes at room temperature, after which the assay mixture was filtered and the membranes washed three times with ice cold buffer. The filter was dried and counted in a gamma counter for remaining radioactivity bound to the membranes. 100% specific binding was defined as the difference in radioactivity (cpm) bound to cell membranes in the absence and presence of 1 μM α-MSH. […] Each assay was conducted in triplicate and the actual mean values are described.

[1] = biological target: T1, MC1-R (B-16 mouse melanoma cells) (Mus musculus, UniProt Q01727); experiment: Competitive inhibition binding assay, 125I-NDP-α-MSH, MC1-R; settings: for Inhibition at 1 μM MC1-R: 1 μM compound, inhibition of 125I-NDP-α-MSH binding, mean of triplicates, results less than 0% reported as 0%
T1 construct: B-16 mouse melanoma cells (containing MC1-R); endogenous in cells; host or cells: B-16 mouse melanoma cells
Protocol: as §1, §2

MC4-R = MC4-R (Homo sapiens, UniProt P32245); experiment: Competitive inhibition binding assay, 125I-NDP-α-MSH, MC4-R; design: expressed in transfected cells; settings: for Inhibition at 1 μM MC4-R: 1 μM compound, inhibition of 125I-NDP-α-MSH binding, mean of triplicates, results less than 0% reported as 0%
Protocol: as §1, §2

MC5-R = MC5-R (Homo sapiens, UniProt P33032); experiment: Competitive inhibition binding assay, 125I-NDP-α-MSH, MC5-R; design: expressed in transfected cells; settings: for Inhibition at 1 μM MC5-R: 1 μM compound, inhibition of 125I-NDP-α-MSH binding, mean of triplicates, results less than 0% reported as 0%
Protocol: as §1, §2

MC3-R, sequence (P41968 whole entry): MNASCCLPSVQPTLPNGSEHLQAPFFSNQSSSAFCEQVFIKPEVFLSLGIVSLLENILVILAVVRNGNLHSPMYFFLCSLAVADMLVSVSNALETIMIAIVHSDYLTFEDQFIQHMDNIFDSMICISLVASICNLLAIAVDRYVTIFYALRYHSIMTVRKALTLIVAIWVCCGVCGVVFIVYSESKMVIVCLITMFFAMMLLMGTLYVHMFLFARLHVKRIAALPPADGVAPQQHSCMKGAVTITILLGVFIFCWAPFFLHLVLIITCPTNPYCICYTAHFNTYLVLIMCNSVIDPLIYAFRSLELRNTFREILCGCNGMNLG
T1 sequence (Q01727 whole entry): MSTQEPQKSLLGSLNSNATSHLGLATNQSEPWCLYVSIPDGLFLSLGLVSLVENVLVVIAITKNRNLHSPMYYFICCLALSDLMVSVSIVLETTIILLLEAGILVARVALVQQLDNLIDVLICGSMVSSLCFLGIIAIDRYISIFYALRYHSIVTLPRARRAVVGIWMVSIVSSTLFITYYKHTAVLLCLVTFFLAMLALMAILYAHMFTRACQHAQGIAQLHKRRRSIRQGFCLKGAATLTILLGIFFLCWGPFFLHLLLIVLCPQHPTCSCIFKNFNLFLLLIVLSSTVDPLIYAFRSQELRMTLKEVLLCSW
MC5-R, sequence (P33032 whole entry): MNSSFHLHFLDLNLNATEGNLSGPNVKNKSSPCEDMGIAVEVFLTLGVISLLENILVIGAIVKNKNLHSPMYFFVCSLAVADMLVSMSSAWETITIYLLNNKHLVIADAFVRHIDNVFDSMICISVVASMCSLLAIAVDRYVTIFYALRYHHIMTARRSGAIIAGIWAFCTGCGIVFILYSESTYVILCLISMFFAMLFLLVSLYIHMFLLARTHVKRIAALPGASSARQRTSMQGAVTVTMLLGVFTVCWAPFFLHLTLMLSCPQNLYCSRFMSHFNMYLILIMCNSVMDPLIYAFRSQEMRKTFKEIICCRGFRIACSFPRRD
MC4-R, sequence (P32245 whole entry): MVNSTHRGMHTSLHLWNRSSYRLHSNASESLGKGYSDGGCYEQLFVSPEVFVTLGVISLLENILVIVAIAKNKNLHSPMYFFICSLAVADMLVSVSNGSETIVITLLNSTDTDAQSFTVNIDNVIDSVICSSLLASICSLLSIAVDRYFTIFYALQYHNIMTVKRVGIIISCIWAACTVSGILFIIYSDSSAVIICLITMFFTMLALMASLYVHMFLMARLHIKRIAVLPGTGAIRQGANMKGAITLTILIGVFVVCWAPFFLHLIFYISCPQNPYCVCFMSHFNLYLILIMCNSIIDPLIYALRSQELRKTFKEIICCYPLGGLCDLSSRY

Structure (SMILES) | Inhibition at 1 μM MC3-R (MC3-R) | Inhibition at 1 μM MC1-R [1] | Inhibition at 1 μM MC4-R (MC4-R) | Inhibition at 1 μM MC5-R (MC5-R) | inhibition at 1 µM (MC3-R) | inhibition at 1 µM [1] | inhibition at 1 µM (MC4-R) | inhibition at 1 µM (MC5-R)
NCCCC[C@H]1C(=O)N2C(CC[C@@H]2COc2ccc3c(c2)CCCC3)N1C(=O)[C@@H](Cc1ccc(Cl)cc1)NC(=O)[C@@H]1Cc2ccccc2CN1 (stereo partly shown) [Example 108] | 19% | 96% | 94% | 66% |  |  |  | 
NCCCC[C@H]1C(=O)N2C(CC[C@@H]2COc2ccc3c(c2)CCCC3)N1C(=O)[C@@H](Cc1ccc(Cl)cc1)NC(=O)[C@@H](N)COCc1ccccc1 (stereo partly shown) [Example 109] | 4% | 93% | 78% | 56% |  |  |  | 
NCCCCCCC(=O)N[C@@H](COCc1ccccc1)C(=O)N[C@H](Cc1ccc(Cl)cc1)C(=O)N1C2CC[C@H](COc3ccc4c(c3)CCCC4)N2C(=O)[C@@H]1CCCCN (stereo partly shown) [Example 110] | 59% | 97% | 96% | 84% |  |  |  | 
N=C(N)NCCC[C@H]1C(=O)N(CCc2ccc3ccccc3c2)CCN1C(=O)[C@H](N)Cc1ccccc1Cl [Example 122] | 2% | 3% | 69% | 5% |  |  |  | 
N=C(N)NCCC[C@H]1C(=O)N(CCc2ccc3ccccc3c2)CCN1C(=O)[C@H](N)Cc1ccc(Cl)cc1 [Example 123] | 38% | 34% | 87% | 29% |  |  |  | 
N=C(N)NCCC[C@H]1C(=O)N(CCc2c[nH]c3ccccc23)CCN1C(=O)[C@H](N)Cc1ccc(Cl)cc1Cl [Example 124] | 57% | 7% | 96% | 35% |  |  |  | 
N=C(N)NCCC[C@H]1C(=O)N(CCc2c[nH]c3ccccc23)CCN1C(=O)[C@H](N)Cc1ccc(Cl)cc1 [Example 125] | 28% | 10% | 68% | 43% |  |  |  | 
Cc1ccc(CCN2CCN(C(=O)[C@H](N)Cc3ccc(Cl)cc3Cl)[C@@H](CCCNC(=N)N)C2=O)cc1 [Example 126] | 42% | 11% | 78% | 34% |  |  |  | 
Cc1ccc(CCN2CCN(C(=O)[C@H](N)Cc3ccc(Cl)cc3)[C@@H](CCCNC(=N)N)C2=O)cc1 [Example 127] | 9% | 9% | 49% | 17% |  |  |  | 
N=C(N)c1ccc(C[C@H]2C(=O)N(CCc3ccc4ccccc4c3)CCN2C(=O)[C@H](N)Cc2ccc(Cl)cc2Cl)cc1 [Example 128] | 0% | 5% | 31% | 21% |  |  |  | 
NCCC[C@H]1CN(CCc2ccc3ccccc3c2)CCN1C(=O)[C@H](N)Cc1ccc(Cl)cc1Cl [Example 130] | 33% | 0% | 81% | 39% |  |  |  | 
C[C@H](N)C(=O)N[C@@H](Cc1cnc[nH]1)C(=O)N[C@H](Cc1ccccc1)C(=O)N1C[C@H](OCc2ccccc2)C[C@H]1C(=O)NCCCN [Example 135] (H-AH[dF][Hyp](Bn)-{NH(CH2)3NH2}) | 0% | 93% | 0% | 0% |  |  |  | 
[2H]N[C@@H](Cc1ccccc1)C(=O)N1C[C@H](OCc2ccccc2)C[C@H]1C(=O)NCCCN [Example 137] |  |  |  |  | 0% | 23% | 0% | 0%
CCCCCCC(=O)N[C@@H](COCc1ccccc1)C(=O)N[C@H](Cc1ccc2ccccc2c1)C(=O)N1C[C@@H](Oc2ccc3ccccc3c2)C[C@H]1C(=O)NCCCN [Example 138] | 0% | 39% | 0% | 0% |  |  |  | 
CC(=O)NC(Cc1cnc[nH]1)C(=O)NC(Cc1ccccc1)C(=O)N1CC(OCc2ccccc2)CC1C(=O)NCCCN (stereo not shown) [Example 139] | 46% | 85% | 43% | 34% |  |  |  | 
NCCCNC(=O)[C@@H]1C[C@@H](OCc2ccccc2)CN1C(=O)[C@@H](Cc1ccccc1)NC(=O)[C@H](Cc1cnc[nH]1)NC(=O)c1ccccc1 [Example 140] | 3% | 78% | 1% | 10% |  |  |  | 
NCCCNC(=O)[C@@H]1C[C@@H](OCc2ccccc2)CN1C(=O)[C@@H](Cc1ccccc1)NC(=O)[C@H](Cc1cnc[nH]1)NC(=O)Cc1ccc2ccccc2c1 [Example 141] | 4% | 84% | 0% | 19% |  |  |  | 
NCCCNC(=O)[C@@H]1C[C@@H](OCc2ccccc2)CN1C(=O)[C@@H](Cc1ccccc1)NC(=O)[C@H](Cc1cnc[nH]1)NC(=O)CC1CCCCC1 [Example 142] | 3% | 85% | 0% | 12% |  |  |  | 
CCCC(CCC)C(=O)N[C@@H](Cc1cnc[nH]1)C(=O)N[C@H](Cc1ccccc1)C(=O)N1C[C@H](OCc2ccccc2)C[C@H]1C(=O)NCCCN [Example 143] | 0% | 73% | 0% | 7% |  |  |  | 
CCCCCCC(=O)N[C@@H](Cc1cnc[nH]1)C(=O)N[C@H](Cc1ccccc1)C(=O)N1C[C@H](OCc2ccccc2)C[C@H]1C(=O)NCCCNC(=N)N [Example 154] | 7% | 92% | 1% | 1% |  |  |  | 
CCCCCCC(=O)N[C@@H](Cc1cnc[nH]1)C(=O)N[C@H](Cc1ccccc1)C(=O)N1C[C@H](OCc2ccccc2)C[C@H]1C(=O)NCCCN [Example 155] | 5% | 71% | 0% | 7% |  |  |  | 
NCCCNC(=O)[C@@H]1C[C@@H](OCc2ccccc2)CN1C(=O)[C@@H](Cc1ccccc1)NC(=O)[C@H](N)Cc1ccc2ccccc2c1 [Example 158] | 5% | 0% | 0% | 0% |  |  |  | 
NCCCNC(=O)C1CC(OCc2ccccc2)CN1C(=O)C(Cc1ccccc1)NC(=O)C1NCCc2ccccc21 (stereo not shown) [Example 159] | 14% | 0% | 1% | 0% |  |  |  | 
NCCCNC(=O)C1CC(OCc2ccccc2)CN1C(=O)C(Cc1ccccc1)NC(=O)C1NCCc2ccccc21 (stereo not shown) [Example 160] | 36% | 1% | 5% | 0% |  |  |  | 
NCCCNC(=O)[C@@H]1C[C@@H](OCc2ccccc2)CN1C(=O)[C@@H](Cc1ccccc1)NC(=O)C1(N)CCCC1 [Example 161] | 23% | 3% | 10% | 0% |  |  |  | 
